Assay in all cases: CYP450 isoform inhibition, late-stage follow-up, ADME assay for V1a-R antagonist project, biochemical, LC-MS (AID 743029)
Data set [1] addresses Cytochrome P450 2C9 (Homo sapiens) (UniProt P11712). Particulars: human CYP isoforms, marker substrate metabolism, CYP2C9, at 10 µM, stronger effect = higher value.
Data set [2] addresses Cytochrome P450 3A4 (Homo sapiens) (UniProt P08684). Particulars: human CYP isoforms, marker substrate metabolism, CYP3A4, at 10 µM, stronger effect = higher value.
In data set [3] the target is Cytochrome P450 2D6 (Homo sapiens) (UniProt P10635). Particulars: human CYP isoforms, marker substrate metabolism, CYP2D6, at 10 µM, stronger effect = higher value.
Data set [4] concerns the target Cytochrome P450 1A2 (Homo sapiens) (UniProt P05177). The following applies: human CYP isoforms, marker substrate metabolism, CYP1A2, at 10 µM, stronger effect = higher value.

Chain of Cytochrome P450 3A4 (Homo sapiens) (P08684 whole entry, looked up, canonical isoform): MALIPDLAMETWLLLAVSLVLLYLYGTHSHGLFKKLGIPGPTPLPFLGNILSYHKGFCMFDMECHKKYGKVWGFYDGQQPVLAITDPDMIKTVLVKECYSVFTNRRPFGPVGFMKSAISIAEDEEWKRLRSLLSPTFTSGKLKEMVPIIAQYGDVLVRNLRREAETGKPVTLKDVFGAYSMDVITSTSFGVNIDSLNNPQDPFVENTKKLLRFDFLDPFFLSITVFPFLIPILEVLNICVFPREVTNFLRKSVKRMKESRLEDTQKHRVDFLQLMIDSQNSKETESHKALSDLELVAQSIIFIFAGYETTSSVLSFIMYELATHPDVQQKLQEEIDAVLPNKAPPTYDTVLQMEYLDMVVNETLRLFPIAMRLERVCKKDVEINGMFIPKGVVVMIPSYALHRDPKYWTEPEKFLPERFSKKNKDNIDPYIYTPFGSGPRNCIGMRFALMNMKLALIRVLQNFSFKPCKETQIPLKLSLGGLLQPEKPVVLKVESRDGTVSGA
Chain of Cytochrome P450 2D6 (Homo sapiens) (P10635 whole entry, looked up, canonical isoform): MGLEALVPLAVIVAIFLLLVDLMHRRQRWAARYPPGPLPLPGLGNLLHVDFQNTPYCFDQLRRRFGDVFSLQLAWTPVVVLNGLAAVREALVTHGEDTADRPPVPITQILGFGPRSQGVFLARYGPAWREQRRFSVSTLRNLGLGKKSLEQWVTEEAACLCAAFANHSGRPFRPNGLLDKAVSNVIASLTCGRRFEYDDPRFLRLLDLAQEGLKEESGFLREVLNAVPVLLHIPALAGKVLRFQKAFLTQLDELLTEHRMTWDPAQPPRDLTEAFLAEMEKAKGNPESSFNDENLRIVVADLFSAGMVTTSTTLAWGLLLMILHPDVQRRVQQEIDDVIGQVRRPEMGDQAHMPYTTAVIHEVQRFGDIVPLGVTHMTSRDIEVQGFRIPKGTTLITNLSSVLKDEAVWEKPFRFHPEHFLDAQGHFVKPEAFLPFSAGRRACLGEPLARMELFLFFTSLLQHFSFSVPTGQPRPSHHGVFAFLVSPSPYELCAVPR
Chain of Cytochrome P450 2C9 (Homo sapiens) (P11712 whole entry, looked up, canonical isoform): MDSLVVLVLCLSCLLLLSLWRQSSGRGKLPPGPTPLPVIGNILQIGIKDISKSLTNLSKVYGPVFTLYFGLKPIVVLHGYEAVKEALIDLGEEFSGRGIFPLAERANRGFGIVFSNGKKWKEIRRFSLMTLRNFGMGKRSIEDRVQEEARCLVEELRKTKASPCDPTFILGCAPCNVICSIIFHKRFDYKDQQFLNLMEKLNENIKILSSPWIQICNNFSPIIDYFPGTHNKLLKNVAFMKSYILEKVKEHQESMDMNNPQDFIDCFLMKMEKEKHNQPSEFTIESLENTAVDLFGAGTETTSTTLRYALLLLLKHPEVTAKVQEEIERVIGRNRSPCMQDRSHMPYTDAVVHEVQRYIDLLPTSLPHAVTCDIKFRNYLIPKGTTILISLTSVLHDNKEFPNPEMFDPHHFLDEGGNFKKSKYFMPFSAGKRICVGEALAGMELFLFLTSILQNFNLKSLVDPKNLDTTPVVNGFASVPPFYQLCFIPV
Chain of Cytochrome P450 1A2 (Homo sapiens) (P05177 whole entry, looked up, canonical isoform): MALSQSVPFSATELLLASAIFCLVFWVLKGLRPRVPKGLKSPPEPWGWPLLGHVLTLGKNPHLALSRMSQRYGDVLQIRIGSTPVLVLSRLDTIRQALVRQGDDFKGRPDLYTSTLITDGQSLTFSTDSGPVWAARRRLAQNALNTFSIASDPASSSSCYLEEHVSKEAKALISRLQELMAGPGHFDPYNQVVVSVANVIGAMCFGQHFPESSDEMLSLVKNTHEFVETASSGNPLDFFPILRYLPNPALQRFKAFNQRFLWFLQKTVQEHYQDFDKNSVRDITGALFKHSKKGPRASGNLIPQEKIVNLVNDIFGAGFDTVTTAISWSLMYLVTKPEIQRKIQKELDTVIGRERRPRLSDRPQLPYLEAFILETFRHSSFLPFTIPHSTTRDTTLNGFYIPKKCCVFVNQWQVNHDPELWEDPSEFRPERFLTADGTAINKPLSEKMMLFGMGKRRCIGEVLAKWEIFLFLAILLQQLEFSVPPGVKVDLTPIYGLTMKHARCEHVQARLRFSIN

For `O=C(C1CCN(c2ccc(Cl)cn2)CC1)N(CC1CC1)c1ccc(Cl)cc1`, the inhibition in data set [1] is -6%; in data set [2] it was -5%; in data set [3] it was 2%; in data set [4], -19%.

A word on the inhibition: it is the change of the read-out against control, counted positive when it falls.

(Values after PubChem BioAssay AID743029 (The Scripps Research Institute Molecular Screening Center, 2013).)
